Read-outs that look alike come from different tables or passages of the source.
Key:
[1] = molecular target: PTERIDINE REDUCTASE (TB927.8.2210) (Trypanosoma brucei brucei, UniProt O76290); experiment: Multitargeted bead mixture competition; type: binding, T. brucei; details: for fold change vs vehicle control / fold change - vehicle control: protein PTERIDINE REDUCTASE (CZT00009056.1); for fold change vs vehicle control: vehicle control = 1; for competition for PTR1 (Figure 6): bead mixture, compound 100 μM
[2] = molecular target: DIHYDROFOLATE REDUCTASE-T[…] (TB427.07.5480) (Trypanosoma brucei brucei, UniProt Q27783); experiment: Multitargeted bead mixture competition; type: binding; details: for fold change vs vehicle control: vehicle control = 1
[3] = tested on: NGG1 INTERACTING FACTOR 3-LIKE (Tb427tmp.02.5000); type: binding; details: for fold change: vehicle control = 1
[4] = tested on: IRON/ASCORBATE OXIDOREDUCTASE FAMILY PROTEIN, PUTA (Tb427.02.6180); experiment: Multitargeted bead mixture competition; type: binding, T. brucei; details: for fold change: PUTATIVE
DHCH = experiment: Multitargeted bead mixture competition; type: binding, L. major; details: CYTOPLASMIC, PUTATIVE; for fold change: vehicle control = 1
[5] = molecular target: inosine-5′-monophosphate dehydrogenase (Tb927.10.16120) (Trypanosoma brucei brucei, UniProt P50098); experiment: Multitargeted bead mixture competition; type: binding, T. brucei; details: for fold change: protein TB927.10.16120 INOSINE-5'-MONOPHOSPHATE DEHYDROGENASE, vehicle control = 1
[6] = molecular target: variant surface glycoprotein 221 (VSM2.TRYBB) (Trypanosoma brucei brucei, UniProt P26332); type: binding, T. brucei; details: for fold change / fold change - vehicle control: protein VSM2_TRYBB VARIANT SURFACE GL[…] 1.2; for fold change: vehicle control = 1
[7] = tested on: methylthioadenosine phosphorylase (LmjF.05.0830); experiment: Multitargeted bead mixture competition; type: binding, Leishmania; details: for fold change vs vehicle control: protein LMJF.05.0830 METHYLTHIOADENOSINE PHOSPHORYLASE, PUTATIVE
[8] = tested on: haloacid dehalogenase-like hydrolase (LmjF.28.1370); experiment: Multitargeted bead mixture competition; type: binding, Leishmania; details: for fold change: protein LMJF.28.1370 HALOACID DEHALOGENASE-LIKE HYDROLASE, PUTATIVE, vehicle control = 1
[9] = protein TB427.07.5480 DIH[…]-T[…]
[10] = protein TB427TMP.02.5000 NGG1 INTERACTING FACTOR 3-LIKE
[11] = protein TB427.02.6180 IRON/ASCORBATE OXIDOREDUCTASE FAMILY PROTEIN, vehicle control = 1
[12] = protein LMJF.26.0320 C-1-TETRAHYDROFOLATE SYNTHASE
[13] = protein TB427TMP.02.5000 NGG1 I[…] 3-LIKE
[14] = protein TB427.02.6180 IRON/ASCORBATE OXID[…] PROTEIN, vehicle control = 1
[15] = protein LMJF.26.0320 C-1-TETRAH[…]
[16] = bead mixture, T. brucei lysates
[17] = relative to vehicle control = 1, protein TB427.02.6180 IRON/ASCORBATE OXIDOREDUCTASE FAMILY PROTEIN
[18] = bead mixture, Leishmania lysates

Row | Compound | fold change vs vehicle control [1] | fold change vs vehicle control [2, 9] | fold change [3, 10] | fold change [5] | fold change [6] | fold change vs vehicle control [7] | fold change [8] | fold change [3, 13] | fold change - vehicle control [1] | fold change - vehicle control [2, 9] | fold change - vehicle control [6] | further results
1 | Nc1nc2c(c(=O)[nH]1)N(C=O)C(CNc1ccc(C(=O)N[C@@H](CCC(=O)O)C(=O)O)cc1)CN2 (stereo partly shown) [LEU, leucovorin] | 0.92 | 1.45 | 0.98 | 1.11 | 3.08 | 0.96 | 1.05 |  |  |  |  | fold change [4, 11]: 0.92; fold change (DHCH; [12]): 0.98
2 | Nc1nc2[nH]cc(CCc3ccc(C(=O)N[C@@H](CCC(=O)O)C(=O)O)cc3)c2c(=O)[nH]1 [PTX, pemetrexed] | 0.16 |  |  | 0.49 | 0.39 | 0.91 | 0.93 | 1.01 |  |  |  | competition for PTR1 (Figure 6) ([1]; T. brucei lysate): competed for PTR1; fold change vs vehicle control ([2]; protein TB427.07.5480 DIHYDROFOLATE REDUCTASE-T[…]): 1.19; fold change [4, 14]: 0.95; fold change (DHCH; [15]): 0.79; binding to inosine-5′-monophosphate dehydrogenase (Tb927.10.16120) [5, 16]: appeared to bind; binding to variant surface glycoprotein 221 (VSM2.TRYBB) [6, 16]: bound specifically
3 | CCCCCCOc1ccc(Cc2cnc(N)nc2N)cc1 [compound 1] |  |  |  | 0.93 |  | 0.19 | 0.13 | 1.08 | 1 | 1.45 | 1.43 | fold change [4, 17]: 0.85; fold change vs vehicle control (DHCH; [12]): 0.93; binding to methylthioadenosine phosphorylase (LmjF.05.0830) [7, 18]: bound; interaction with haloacid dehalogenase-like hydrolase (LmjF.28.1370) [8, 18]: interacted strongly
4 | CCCCCCOc1cccc(Cc2cnc(N)nc2N)c1 [compound 2] |  |  | 1.1 | 1.03 |  | 0.89 | 1 |  | 0.92 | 1.44 | 1.6 | fold change [4, 17]: 0.92; fold change vs vehicle control (DHCH; [12]): 0.96
5 | Nc1nc2cccc(-c3ccccc3)c2n1Cc1ccc(Cl)c(Cl)c1 [compound 3] |  |  |  | 1 |  | 0.94 | 1.07 | 1.02 | 0.15 | 0.98 | 0.67 | competition for PTR1 (Figure 6) ([1]; T. brucei lysate): competed for PTR1; percentage of competition from bead binding ([1]; multitargeted bead mixture, free ligand 100 μM, T. brucei lysate, TB927.8.2210 PTERIDINE REDUCTASE): 89%; percentage of competition from bead binding ([2]; multitargeted bead mixture, free ligand 100 μM, T. brucei lysate, TB427.07.5480 DHFR-TS): -11%; percentage of competition from bead binding ([3]; multitargeted bead mixture, free ligand 100 μM, T. brucei lysate, Tb427tmp.02.5000): -6%; percentage of competition from bead binding ([4]; multitargeted bead mixture, free ligand 100 μM, T. brucei lysate, Tb427.02.6180): 0%; fold change ([4]; relative to vehicle control = 1, protein TB427.02.6180 IRON/ASCORBATE OXID[…] PROTEIN): 0.9; fold change vs vehicle control (DHCH; [15]): 0.96
6 | NCCOCCOCC(=O)Nc1nc2ncc(CNc3ccc(C(=O)NC(CCC(=O)O)C(=O)O)cc3)nc2c(=O)[nH]1 (stereo not shown) [compound 6] | 0.49 | 1.09 | 0.68 | 1 | 2.16 | 0.96 | 0.89 |  |  |  |  | fold change [4, 11]: 0.28; fold change (DHCH; [12]): 0.98
7 | NCCCNc1ccc(C(=O)NC(CCC(=O)O)C(=O)O)cc1 (stereo not shown) [compound 7] | 1.03 | 0.98 |  | 1.04 | 0.81 | 1.02 | 1.02 | 1.16 |  |  |  | fold change [4, 14]: 1.02; fold change (DHCH; [15]): 1.06

Source: article PMC6199744, “Development of Chemical Proteomics for the Folateome and Analysis of the Kinetoplastid Folateome” (ACS Infectious Diseases, 2018)
